Blank lines part the entries; values can stand above or below the molecule they belong to.
Legend:
[1] = target: T1, Histone-lysine N-methyltransferase NSD2 (Homo sapiens, UniProt O96028); test: Inhibition of 15N-labeled NSD2 (953 to 1240 residues) (unknown origin) expressed in Escherichia coli BL21 DE3 using H3K36 as substrate incubated for 60 mins by Alphascreen assay
T1 sequence (O96028 whole entry): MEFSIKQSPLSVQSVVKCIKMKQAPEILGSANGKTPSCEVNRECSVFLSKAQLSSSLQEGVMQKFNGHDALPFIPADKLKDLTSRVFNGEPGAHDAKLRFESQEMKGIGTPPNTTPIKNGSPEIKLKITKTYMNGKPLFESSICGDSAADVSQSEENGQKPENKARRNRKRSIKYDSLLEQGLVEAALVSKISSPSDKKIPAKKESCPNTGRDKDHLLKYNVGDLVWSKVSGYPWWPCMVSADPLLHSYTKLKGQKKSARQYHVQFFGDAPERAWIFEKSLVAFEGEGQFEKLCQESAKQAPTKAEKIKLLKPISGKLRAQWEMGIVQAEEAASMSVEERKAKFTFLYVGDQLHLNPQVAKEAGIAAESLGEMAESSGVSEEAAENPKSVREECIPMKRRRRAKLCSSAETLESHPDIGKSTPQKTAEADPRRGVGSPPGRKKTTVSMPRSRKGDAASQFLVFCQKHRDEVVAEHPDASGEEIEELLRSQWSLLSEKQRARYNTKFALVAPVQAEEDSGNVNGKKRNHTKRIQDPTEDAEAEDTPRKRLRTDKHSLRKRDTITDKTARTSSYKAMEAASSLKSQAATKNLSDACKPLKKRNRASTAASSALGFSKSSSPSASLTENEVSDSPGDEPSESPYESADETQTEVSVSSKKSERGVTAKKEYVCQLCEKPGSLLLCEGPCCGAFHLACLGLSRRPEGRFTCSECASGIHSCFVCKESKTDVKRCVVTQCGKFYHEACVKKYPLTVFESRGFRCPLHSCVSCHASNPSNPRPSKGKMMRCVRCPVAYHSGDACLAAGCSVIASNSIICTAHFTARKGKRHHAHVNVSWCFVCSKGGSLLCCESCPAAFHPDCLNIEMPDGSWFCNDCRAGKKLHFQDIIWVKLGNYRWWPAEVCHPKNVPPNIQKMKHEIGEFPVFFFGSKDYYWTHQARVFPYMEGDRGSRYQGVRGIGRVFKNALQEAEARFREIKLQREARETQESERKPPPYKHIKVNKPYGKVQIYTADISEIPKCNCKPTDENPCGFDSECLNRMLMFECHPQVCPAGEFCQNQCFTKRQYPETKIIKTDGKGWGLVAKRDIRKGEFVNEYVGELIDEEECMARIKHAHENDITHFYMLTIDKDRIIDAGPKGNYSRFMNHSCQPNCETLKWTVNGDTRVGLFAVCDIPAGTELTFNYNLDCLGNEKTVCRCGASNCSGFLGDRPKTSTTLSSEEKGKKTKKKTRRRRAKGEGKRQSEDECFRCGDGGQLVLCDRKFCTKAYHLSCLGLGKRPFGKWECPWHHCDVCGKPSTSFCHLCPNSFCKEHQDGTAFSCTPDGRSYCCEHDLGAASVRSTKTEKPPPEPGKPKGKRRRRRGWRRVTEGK

[2] = target: T1, Histone-lysine N-methyltransferase NSD2; test: Inhibition of NSD2 in human CGTH-W-1 cells assessed as reduction in H3K36me2 level incubated for 72 hrs by ELISA; format: cell-based
[3] = target: T1, Histone-lysine N-methyltransferase NSD2; test: Inhibition of NSD2 in human KMS-11-Par cells assessed as reduction in H3K36me2 level incubated for 72 hrs by ELISA; format: cell-based
[4] = target: T1, Histone-lysine N-methyltransferase NSD2; test: Binding affinity to human biotinylated NSD2 (208 to 368 residues) expressed in Escherichia coli BL21(DE3) by SPR assay
[5] = target: T1, Histone-lysine N-methyltransferase NSD2; test: Inhibition of NSD2 (unknown origin)
[6] = target: T1, Histone-lysine N-methyltransferase NSD2; test: Inhibition of NSD2 (unknown origin) using H3K36 as substrate
[7] = target: Histone-lysine N-methyltransferase, H3 lysine-36 specific (Homo sapiens, UniProt Q96L73); test: Inhibition of NSD1 (unknown origin) using H3K36 as substrate
Chain of Histone-lysine N-methyltransferase, H3 lysine-36 specific (Q96L73 whole entry): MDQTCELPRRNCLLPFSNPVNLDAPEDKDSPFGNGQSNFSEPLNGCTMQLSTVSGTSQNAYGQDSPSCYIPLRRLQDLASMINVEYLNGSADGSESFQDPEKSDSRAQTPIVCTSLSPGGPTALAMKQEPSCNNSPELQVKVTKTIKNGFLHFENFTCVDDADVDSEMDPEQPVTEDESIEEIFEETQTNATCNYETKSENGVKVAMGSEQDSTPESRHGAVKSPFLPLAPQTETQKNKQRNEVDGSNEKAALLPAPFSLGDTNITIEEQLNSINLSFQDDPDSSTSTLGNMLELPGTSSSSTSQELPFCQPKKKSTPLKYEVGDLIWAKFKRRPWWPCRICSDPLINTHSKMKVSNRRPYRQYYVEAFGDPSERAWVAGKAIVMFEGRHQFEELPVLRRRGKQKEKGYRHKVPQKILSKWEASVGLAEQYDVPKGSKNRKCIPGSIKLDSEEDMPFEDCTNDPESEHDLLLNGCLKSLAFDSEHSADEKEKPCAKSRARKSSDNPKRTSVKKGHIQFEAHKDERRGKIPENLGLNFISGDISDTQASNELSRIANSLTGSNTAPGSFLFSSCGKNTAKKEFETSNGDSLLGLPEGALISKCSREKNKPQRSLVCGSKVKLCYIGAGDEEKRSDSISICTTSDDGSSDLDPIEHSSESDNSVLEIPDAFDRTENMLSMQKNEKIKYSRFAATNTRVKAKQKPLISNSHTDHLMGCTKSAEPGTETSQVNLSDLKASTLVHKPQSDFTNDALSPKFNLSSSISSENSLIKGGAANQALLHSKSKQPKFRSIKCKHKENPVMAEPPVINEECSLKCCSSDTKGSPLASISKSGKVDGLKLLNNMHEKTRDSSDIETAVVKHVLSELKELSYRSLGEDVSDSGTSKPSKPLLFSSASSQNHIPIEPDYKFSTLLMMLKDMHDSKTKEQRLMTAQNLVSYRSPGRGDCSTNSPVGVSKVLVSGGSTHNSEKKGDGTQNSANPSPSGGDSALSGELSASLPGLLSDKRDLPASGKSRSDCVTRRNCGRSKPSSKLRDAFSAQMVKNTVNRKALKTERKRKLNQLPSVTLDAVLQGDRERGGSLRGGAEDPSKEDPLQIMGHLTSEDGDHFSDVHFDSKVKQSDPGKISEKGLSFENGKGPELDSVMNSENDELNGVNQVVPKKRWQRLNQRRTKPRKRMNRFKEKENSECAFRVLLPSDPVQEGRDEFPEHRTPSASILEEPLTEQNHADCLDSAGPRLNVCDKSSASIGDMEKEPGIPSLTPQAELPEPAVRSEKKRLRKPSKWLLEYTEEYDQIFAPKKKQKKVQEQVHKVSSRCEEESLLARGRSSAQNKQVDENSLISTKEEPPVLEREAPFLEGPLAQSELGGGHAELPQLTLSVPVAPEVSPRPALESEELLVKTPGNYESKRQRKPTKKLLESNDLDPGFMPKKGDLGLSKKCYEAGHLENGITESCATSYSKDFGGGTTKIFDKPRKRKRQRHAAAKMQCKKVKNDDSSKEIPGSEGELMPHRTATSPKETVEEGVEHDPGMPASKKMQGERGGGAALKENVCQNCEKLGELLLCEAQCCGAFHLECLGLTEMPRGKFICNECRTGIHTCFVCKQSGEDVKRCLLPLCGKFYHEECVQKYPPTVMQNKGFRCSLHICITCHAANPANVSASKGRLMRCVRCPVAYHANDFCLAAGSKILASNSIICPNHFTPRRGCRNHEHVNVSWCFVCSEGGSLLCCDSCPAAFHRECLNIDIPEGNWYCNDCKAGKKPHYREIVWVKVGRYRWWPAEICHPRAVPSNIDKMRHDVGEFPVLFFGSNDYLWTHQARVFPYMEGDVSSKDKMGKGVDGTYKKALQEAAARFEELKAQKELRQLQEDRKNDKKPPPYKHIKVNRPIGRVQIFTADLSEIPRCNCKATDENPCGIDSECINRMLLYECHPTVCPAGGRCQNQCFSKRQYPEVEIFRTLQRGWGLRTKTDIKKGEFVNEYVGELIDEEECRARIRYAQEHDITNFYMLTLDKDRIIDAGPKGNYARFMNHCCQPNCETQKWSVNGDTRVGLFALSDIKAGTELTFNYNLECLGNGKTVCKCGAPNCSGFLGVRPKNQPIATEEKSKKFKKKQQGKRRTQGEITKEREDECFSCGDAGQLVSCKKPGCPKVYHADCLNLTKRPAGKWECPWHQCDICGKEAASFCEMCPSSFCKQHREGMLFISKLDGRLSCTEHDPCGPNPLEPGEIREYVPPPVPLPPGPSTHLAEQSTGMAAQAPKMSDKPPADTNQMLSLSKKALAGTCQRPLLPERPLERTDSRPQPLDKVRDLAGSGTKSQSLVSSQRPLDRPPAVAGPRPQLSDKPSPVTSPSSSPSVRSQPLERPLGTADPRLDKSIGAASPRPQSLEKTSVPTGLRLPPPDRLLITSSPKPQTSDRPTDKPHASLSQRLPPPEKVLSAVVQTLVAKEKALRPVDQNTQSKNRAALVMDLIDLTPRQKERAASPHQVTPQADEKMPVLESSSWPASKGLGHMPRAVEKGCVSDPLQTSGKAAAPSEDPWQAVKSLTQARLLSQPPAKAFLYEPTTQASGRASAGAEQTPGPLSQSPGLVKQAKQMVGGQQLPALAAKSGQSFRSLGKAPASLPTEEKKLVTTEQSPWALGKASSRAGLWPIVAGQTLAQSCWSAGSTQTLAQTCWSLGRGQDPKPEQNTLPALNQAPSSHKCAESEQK

[8] = target: T2, Histone-lysine N-methyltransferase NSD3 (Homo sapiens, UniProt Q9BZ95); test: Inhibition of NSD3 (unknown origin) using H3K36 as substrate
T2 sequence (Q9BZ95 whole entry): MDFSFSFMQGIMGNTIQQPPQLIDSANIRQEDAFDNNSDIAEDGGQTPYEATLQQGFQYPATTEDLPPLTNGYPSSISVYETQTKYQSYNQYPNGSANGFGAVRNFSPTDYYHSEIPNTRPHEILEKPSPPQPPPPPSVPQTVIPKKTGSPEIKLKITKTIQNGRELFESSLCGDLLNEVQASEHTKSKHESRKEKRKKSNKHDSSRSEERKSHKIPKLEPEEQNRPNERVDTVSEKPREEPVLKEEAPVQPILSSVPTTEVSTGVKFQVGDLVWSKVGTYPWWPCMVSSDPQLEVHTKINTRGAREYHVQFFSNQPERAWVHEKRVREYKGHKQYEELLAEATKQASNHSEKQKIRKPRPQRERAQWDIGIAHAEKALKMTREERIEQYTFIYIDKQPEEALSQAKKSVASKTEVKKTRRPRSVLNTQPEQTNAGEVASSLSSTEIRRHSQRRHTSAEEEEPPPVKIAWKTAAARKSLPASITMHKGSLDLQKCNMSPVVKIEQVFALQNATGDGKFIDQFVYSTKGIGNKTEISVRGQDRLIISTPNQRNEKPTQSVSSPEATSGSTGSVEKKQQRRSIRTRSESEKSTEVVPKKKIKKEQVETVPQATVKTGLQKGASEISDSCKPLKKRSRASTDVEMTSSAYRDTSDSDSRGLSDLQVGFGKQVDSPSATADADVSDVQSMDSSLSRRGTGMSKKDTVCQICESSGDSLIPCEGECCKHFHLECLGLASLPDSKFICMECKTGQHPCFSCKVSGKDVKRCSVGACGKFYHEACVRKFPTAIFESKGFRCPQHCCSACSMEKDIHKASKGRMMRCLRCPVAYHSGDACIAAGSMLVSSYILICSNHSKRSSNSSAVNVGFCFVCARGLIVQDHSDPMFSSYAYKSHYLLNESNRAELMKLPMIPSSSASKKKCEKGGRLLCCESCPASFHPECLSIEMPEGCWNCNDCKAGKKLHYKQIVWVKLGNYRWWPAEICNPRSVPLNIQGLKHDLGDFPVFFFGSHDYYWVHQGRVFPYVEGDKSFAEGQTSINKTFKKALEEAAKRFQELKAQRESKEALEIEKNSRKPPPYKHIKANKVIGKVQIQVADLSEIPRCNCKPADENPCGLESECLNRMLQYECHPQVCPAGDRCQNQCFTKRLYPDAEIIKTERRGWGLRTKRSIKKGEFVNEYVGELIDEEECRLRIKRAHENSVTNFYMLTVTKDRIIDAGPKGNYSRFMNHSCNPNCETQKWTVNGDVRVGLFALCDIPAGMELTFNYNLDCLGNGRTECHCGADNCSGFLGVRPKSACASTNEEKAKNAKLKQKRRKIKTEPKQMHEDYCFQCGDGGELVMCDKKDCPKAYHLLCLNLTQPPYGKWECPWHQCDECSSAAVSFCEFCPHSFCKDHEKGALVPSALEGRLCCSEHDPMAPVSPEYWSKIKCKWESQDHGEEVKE

[9] = target: T1, Histone-lysine N-methyltransferase NSD2; test: Inhibition of MMSET (unknown origin)
[10] = Inhibition of GST-tagged NSD3 (247 to 398 residues) (unknown origin) /PWWP1 (unknown origin) protein-protein interaction incubated for 60 mins by TR-FRET assay; design: species or system Homo sapiens
NCI-H2228 = test: Antiproliferative activity against human NCI-H2228 cells; format: functional, cell-based
MDA-MB-231 = test: Antiproliferative activity against human MDA-MB-231 cells; format: functional, cell-based
SK-OV-3 = test: Antiproliferative activity against human SK-OV-3 cells; format: functional, cell-based
PC-3 = test: Antiproliferative activity against human PC-3 cells; format: functional, cell-based

IC50 [1]: 46 µM
Structure (SMILES): Nc1ncnc2c1ncn2[C@@H]1O[C@H](C[C@@H](N)CC[C@H](N)C(=O)O)[C@@H](O)[C@H]1O [SINEFUNGIN]

Kd [4]: > 20 µM
Structure (SMILES): CC(C)N(Cc1ccc(C(=O)Nc2ccncn2)cc1)C(=O)c1ccc2c(c1)OCC(=O)N2

IC50 [6]: 111 µM | IC50 [7]: 418 µM | IC50 [8]: 60 µM
Structure (SMILES): O=C(NCCCN(Cc1nc2sc3c(c2c(=O)[nH]1)CCCC3)Cc1nc2sc3c(c2c(=O)[nH]1)CCCC3)c1cc2ccccc2c(=O)o1

IC50 [9]: < 3 µM
Structure (SMILES): NNc1nc2ccccc2nc1S

IC50 [5]: 8.1 µM
Structure (SMILES): C=CC(=O)Nc1cc(NC(=O)Nc2ccc3nnsc3c2)cc(C(=O)OC)c1

IC50 [1]: 1.8 µM
Structure (SMILES): CC(C)CN[C@@H](CC[C@H](N)C(=O)O)C[C@H]1O[C@@H](n2cnc3c(N)ncnc32)[C@H](O)[C@@H]1O

Continued, molecule first:

Structure (SMILES): CNC(=O)[C@@]1(N)CCCN(c2cnc(-c3cccc(F)c3)cc2Cn2cnc3c(N)ncnc32)C1
IC50 [2]: 0.012 µM | IC50 [3]: 0.078 µM

Structure (SMILES): Cn1nnc2ccc(NC(=O)Nc3cccc([N+](=O)[O-])c3)cc21
IC50 [5]: 8.3 µM

Structure (SMILES): CC[C@H](C)C(=O)[C@@]1(N)CCCN(c2cnc(-c3ccc(F)c(F)c3)cc2Cn2cnc3c(N)ncnc32)C1
IC50 [2]: 0.04 µM | IC50 [3]: 0.034 µM

Structure (SMILES): CC(=O)c1ccc(-c2cc(NC(=O)Nc3ccc4nnsc4c3)cc(C(F)(F)F)c2)s1
IC50 [5]: 7.3 µM

Structure (SMILES): Nc1ncnc2c1ncn2Cc1cc(-c2ccc(F)c(F)c2)ncc1N1CCC[C@](N)(c2ccccn2)C1
IC50 [2]: 0.018 µM | IC50 [3]: 0.041 µM

Structure (SMILES): Cc1cc(CN)cc(C)c1-c1ncn(C)c1-c1ccnc2cc(F)ccc12
IC50 [10]: 0.203 µM

Structure (SMILES): COC(=O)c1cc(NC(=O)Nc2ccc3nnsc3c2)cc(C(=O)OC)c1
IC50 (NCI-H2228): 6.8 µM | IC50 [5]: 3.7 µM | IC50 (MDA-MB-231): 5.1 µM | IC50 (SK-OV-3): 2.6 µM | IC50 (PC-3): 4.2 µM

Structure (SMILES): N#Cc1cccc(NC(=O)Nc2ccc3nnsc3c2)c1
IC50 [5]: 7.5 µM

Structure (SMILES): O=C(Nc1cccc([N+](=O)[O-])c1)Nc1ccc2nnsc2c1
IC50 [5]: 4.8 µM

Structure (SMILES): O=C1COc2cc(C(=O)N(Cc3cccs3)C3CC3)ccc2N1
Kd [4]: 0.349 µM
